# Laboratory results: PMC9924227, “IFITM proteins assist cellular uptake of diverse linked chemotypes” (Science (New York, N.Y.), 2022)
# Like-named read-outs stand apart in the source and are kept apart here.
# Experiments:
# Experiment in all cases: cells
# [1] = test system: K562 CRISPRi; design: Cell viability dose-response in K562 CRISPRi/CRISPRa cells; IC50 from fitted curve; conditions: Homo sapiens, non-targeting control sgRNA, read-out: Cell viability IC50 (nM) / NegCtrl sg
# Source text: (§1) To further examine the breadth of linked chemotypes that might be assisted by IFITMs, we designed, synthesized, and characterized a new linked molecular glue inhibitor based on the natural product rocaglamide. Rocaglamide clamps the EIF4A1 helicase to 5’ untranslated regions (UTRs) of target mRNAs to inhibit the translation of downstream sequences ([64]). […] We reasoned that dimerization of rocaglamide through its amide position could be a chemically tractable means to simultaneously engage two proximal EIF4A1-RNA complexes within the cell. We designed a molecule, BisRoc-1 (fig. S9B), that links two rocaglamide monomers together with a linker length (35 heavy atoms) exceeding the distance separating two rocaglamide binding sites in the crystal structure (fig. S9A). […] Additionally, we evaluated the relationship between linker length and IFITM assistance by examining an analog series consisting of BisRoc-1 (PEG11), BisRoc-2 (PEG4), BisRoc-3 (PEG2), and rocaglamide (no linker) (fig. S9E). We treated our K562 CRISPRi and CRISPRa cells with these inhibitors and evaluated differences in potency resulting from IFITM expression modulation, as measured by half-maximal inhibitory concentration (IC50) shift in a cell viability assay (fig. S9, E and F, and data file S7). […] IFITMs assist the cellular activity of diverse linked chemotypes. (A) Heavy atom skeletons of compounds assessed for IFITM assistance (see also fig. S10 for chemical structures). Compounds were categorized as non-linked chemotypes (compounds 1–8, black), linked chemotypes with short linkers (compounds 9–14, gray), or linked chemotypes with long linkers (compounds 15–17, green). (B) Chemical-genetic interaction map of inhibitors in (A) with IFITM1, IFTM2, and IFITM3. Potency, as measured by dose-response IC50 in a cell viability assay (see also Fig. 1F, Fig. 3D, or fig. S9D for example source data), was normalized to that of non-sgRNA-expressing K562 CRISPRi or CRISPRa cells. Physicochemical properties, including molecular weight (MW) and number of rotatable bonds, with their respective traditional thresholds for drug-likeness are indicated (right). Data represent means of three biological replicates. (C) Map of chemical space populated by 304 kinase inhibitors in clinical development (black), 3270 PROTACs reported in the literature (gray), and 3 linked chemotypes described herein (green). Boundaries represent traditional guidelines for drug-likeness.
# [2] = test system: K562 CRISPRa; design: Cell viability dose-response in K562 CRISPRi/CRISPRa cells; IC50 from fitted curve; conditions: Homo sapiens; sheet K562 CRISPRa IC50;; non-targeting control sgRNA; read-out: Cell viability IC50 (nM) / NegCtrl sg
# Source text: as §1
# [3] = test system: T1, K562; design: dose-response cell viability assay in K562 CRISPRi/CRISPRa CML cells, IC50; conditions: Homo sapiens, read-out: Cell viability IC50 (nM) / No sgRNA
# T1 construct: engineered with CRISPRi or CRISPRa machinery, no sgRNA
# Source text: To further examine the breadth of linked chemotypes that might be assisted by IFITMs, we designed, synthesized, and characterized a new linked molecular glue inhibitor based on the natural product rocaglamide. Rocaglamide clamps the EIF4A1 helicase to 5’ untranslated regions (UTRs) of target mRNAs to inhibit the translation of downstream sequences ([64]). […] We reasoned that dimerization of rocaglamide through its amide position could be a chemically tractable means to simultaneously engage two proximal EIF4A1-RNA complexes within the cell. We designed a molecule, BisRoc-1 (fig. S9B), that links two rocaglamide monomers together with a linker length (35 heavy atoms) exceeding the distance separating two rocaglamide binding sites in the crystal structure (fig. S9A). […] Additionally, we evaluated the relationship between linker length and IFITM assistance by examining an analog series consisting of BisRoc-1 (PEG11), BisRoc-2 (PEG4), BisRoc-3 (PEG2), and rocaglamide (no linker) (fig. S9E). We treated our K562 CRISPRi and CRISPRa cells with these inhibitors and evaluated differences in potency resulting from IFITM expression modulation, as measured by half-maximal inhibitory concentration (IC50) shift in a cell viability assay (fig. S9, E and F, and data file S7). […] Given the ubiquitous presence of IFITMs in cells, we hypothesized that the cellular uptake of other linked inhibitors in the literature could also be assisted by IFITMs. While not generally as large as the linked chemotypes described above, PROTACs are likewise composed of two chemical entities covalently attached by a flexible tether ([16]). Thus, we included four PROTACs (GMB-475, MZ1, BETd-260, and dBET6) and their non-linked parent inhibitors in an expanded survey of chemical-genetic interactions with IFITMs (Fig. 4A, fig. S10, and table S1). These compounds were evaluated in the same IFITM dependency analysis as the BisRoc linker series (Fig. 4B and data file S7). Using RapaLink-1 as a chemical benchmark, we observed that IFITM1, IFITM2, and IFITM3 overexpression sensitized cells to linked chemotypes (Fig. 4B; compounds 9-17). The inverse finding, resistance to linked chemotypes, resulted from gene knockdown (Fig. 4B). The trend observed in the BisRoc series was corroborated across the 9 bivalent molecules tested (Fig. 4B): the magnitudes of chemical-genetic interactions correlated with linker length which is reflected in inhibitor size (molecular weight) and flexibility (number of rotatable bonds). Linked chemotypes with long linkers were more IFITM-assisted than linked chemotypes with short linkers, and non-linked chemotypes (Fig. 4B; compounds 1-8) were not observed to be assisted by IFITMs (Fig. 4B). Despite their cellular activities, the physicochemical properties of the linked chemotypes largely violate Lipinski’s ([1]) and Veber’s ([2]) classic guidelines (Fig. 4, A to C, and table S1), raising the need for a revised drug design framework that considers IFITM-assisted uptake and other cellular import processes.  Fig. 4. IFITMs assist the cellular activity of diverse linked chemotypes. (A) Heavy atom skeletons of compounds assessed for IFITM assistance (see also fig. S10 for chemical structures). Compounds were categorized as non-linked chemotypes (compounds 1–8, black), linked chemotypes with short linkers (compounds 9–14, gray), or linked chemotypes with long linkers (compounds 15–17, green). (B) Chemical-genetic interaction map of inhibitors in (A) with IFITM1, IFTM2, and IFITM3. Potency, as measured by dose-response IC50 in a cell viability assay (see also Fig. 1F, Fig. 3D, or fig. S9D for example source data), was normalized to that of non-sgRNA-expressing K562 CRISPRi or CRISPRa cells. Physicochemical properties, including molecular weight (MW) and number of rotatable bonds, with their respective traditional thresholds for drug-likeness are indicated (right). Data represent means of three biological replicates. […]
# [4] = sheet K562 CRISPRa IC50, no sgRNA
Structure (SMILES),IC50 [1] [nM],IC50 [2] [nM],"IC50 [3, 4] [nM]","IC50 ([3]; Cells=K562 CRISPRi, no sgRNA) [nM]"
CO[C@@H]1C[C@@H]2CC[C@@H](C)[C@@](O)(O2)C(=O)C(=O)N2CCCC[C@@H]2C(=O)O[C@H]([C@H](C)C[C@H]2CC[C@H](OCCOCc3cn(CCOCCOCCOCCOCCOCCOCCOCCOCCC(=O)NCCCCn4nc(-c5ccc6oc(N)nc6c5)c5c(N)ncnc54)nn3)[C@H](OC)C2)CC(=O)[C@H](C)/C=C(/C)[C@H](O)[C@@H](OC)C(=O)[C@H](C)C[C@H](C)\C=C/C=C\C=C/1C (stereo in doubt) [RapaLink-1],1.25,2.07,2.23,1.19
CCn1nc(C2CC2)cc1Nc1nc(C(=O)NCCCCCc2cccc3c2CN(C2CCC(=O)NC2=O)C3=O)nc2[nH]c3cc(-c4c(C)noc4C)c(OC)cc3c12 (centres unmarked) [BETd-260],3.88,1.04,1.15,3.79
Cc1ncsc1-c1ccc(CNC(=O)[C@@H]2C[C@@H](O)CN2C(=O)[C@@H](NC(=O)COCCOc2ccc(-c3cc(Nc4ccc(OC(F)(F)F)cc4)ncn3)cc2)C(C)(C)C)cc1 [GMB-475],249,179,212,264
NC(=O)c1cccc(-c2cc(Nc3ccc(OC(F)(F)F)cc3)ncn2)c1 [GNF-2],284,205,202,291
CCn1nc(C2CC2)cc1Nc1nc(C(=O)NC)nc2[nH]c3cc(-c4c(C)noc4C)c(OC)cc3c12 [HJB97],41.5,9.74,11.6,46.8
Cc1sc2c(c1C)C(c1ccc(Cl)cc1)=N[C@@H](CC(=O)OC(C)(C)C)c1nnc(C)n1-2 [JQ1],121,22.2,24.4,118
Cc1ncsc1-c1ccc(CNC(=O)[C@@H]2C[C@@H](O)CN2C(=O)[C@@H](NC(=O)COCCOCCOCCNC(=O)C[C@@H]2N=C(c3ccc(Cl)cc3)c3c(sc(C)c3C)-n3c(C)nnc32)C(C)(C)C)cc1 [MZ1],146,33.3,31.4,135
CO[C@H]1C[C@@H]2CC[C@@H](C)[C@@](O)(O2)C(=O)C(=O)N2CCCC[C@H]2C(=O)O[C@H]([C@H](C)C[C@@H]2CC[C@@H](O)[C@H](OC)C2)CC(=O)[C@H](C)/C=C(\C)[C@@H](O)[C@@H](OC)C(=O)[C@H](C)C[C@H](C)/C=C/C=C/C=C/1C [Rapamycin],0.776,0.376,0.356,0.743
COc1ccc([C@@]23Oc4cc(OC)cc(OC)c4[C@]2(O)[C@H](O)[C@H](C(=O)N(C)C)[C@H]3c2ccccc2)cc1 [Rocaglamide],6.86,6.97,7.65,7.23
CC(C)n1nc(-c2ccc3oc(N)nc3c2)c2c(N)ncnc21 [Sapanisertib],24.4,15.3,14.2,24.6
Cc1sc2c(c1C)C(c1ccc(Cl)cc1)=N[C@@H](CC(=O)NCCCCCCCCNC(=O)COc1cccc3c1C(=O)N(C1CCC(=O)NC1=O)C3=O)c1nnc(C)n1-2 (some centres unmarked) [dBET6],12.6,3.04,3.26,11.7
